One series concerns BMAL1 reporter. The series can be described thus: BMAL1 luciferase reporter assay in BT474 cells. The format is cell-based, human. The note with it: shRNA 48 h, vs empty vector. The procedure:
FIG. 2 NR1D1 and PBP are necessary for survival of ERBB2-positive cells. (a) PBP and NR1D1 mRNA levels of BT474 cells transfected with luciferase (control), PBP or NR1D1 shRNAs for 48 h, analyzed by qRT-PCRs. (Error bars are s.d from 3 experiments; ***P<0.003, **P=0.01, *P=0.02). (b) BMAL1 luciferase reporter activity of BT474 cells transfected with either empty vector (control), or NR1D1 shRNA for 48 h.
FIG. 3 PPAR. inhibition impacts NR1D1 expression and ERBB2-positive cells viability. (a) Cell counts of BT474, MDA-MB-361, MCF-7 and HMEC cells treated with vehicle, 10 and 20 μM of the PPAR. antagonist GW9662 for 72 hrs. Results represented as % of control (vehicle). (Error bars are s.d from 3 individual experiments; *P>0.2, **P<0.05, ***P<0.002). (b) BT474 cells treated with vehicle or 20 μM of GW9662 for 48 h were immuno-stained for cleaved Caspase-3. (c) Quantification of Caspase-3 signal. […] (d) aP2 and NR1D1 mRNA levels of BT474 cells treated with vehicle (control) and 20 μM of GW9662 for 48 h, analyzed by qRT-PCRs. […]
Reporter assays. […] Cells were lysed 48 h post-transfection and firefly (reporter) and renilla luciferase activities were measured using the Dual-Luciferase Reporter Assay kit (Promega) on a BioTek Synergy HT reader. The ratio of Firefly to Renilla luciferase activity was calculated and presented as percentage of control.
(In a reporter assay the amount or activity of a reporter protein is the signal.)

In a further series the test system is PBP. The note with it: after shRNA transfection.

Experimental for PBP: Immunoblotting. Cell extracts for western blots were obtained using RIPA buffer (1% Triton X-100, 40mM NaCl, 0.1% SDS, 10 mM Tris pH 8.0) supplemented with complete cocktail of proteinase inhibitors (Roche). For detection of phoshporylated epitopes, the PhosSTOP cocktail of phospatase inhibitors (Roche) was added in the lysis buffer. Protein extracts were separated by SDS-PAGE, transferred to Immobilon-P (Millipore) membranes and immunoblotted according to standard protocols. Blots were imaged using a FluorChem HD (Alpha Innotech) imaging system and images were analyzed by densitometry using the FluorChem 9900 software (Alpha Innotech). Antibodies used: anti-flag (M2; Stratagene), PBP (TRAP220, C-19; Santa Cruz), GAPDH (V-18; Santa Cruz Biotechnology), ERBB2 (clone 42; BD), phospho-ERBB2 (Tyr877, #2241; Cell Signaling Technology), phospho-ERBB2 (Tyr1221/1222, 6B12; Cell Signaling Technology), anti-rabbit IgG-HRP (sc-2204, Santa Cruz Biotechnology), anti-goat IgG-HRP (sc-2768, Santa Cruz Biotechnology), anti-mouse IgG-HRP (#31430; Pierce Biotechnology) qRT-PCR.

Take “NR1D1 shRNA: shRNA, mature sequence GGCATGGTGTTACTGTGTA (shRNA)”: the “up-regulation of BMAL1 reporter” value in the series with BMAL1 reporter stood at 2.5 fold.

“PBP shRNA: shRNA, mature sequence CCGAGTTCCTCTTATCCTA (shRNA)”: the PBP protein levels result in the series with PBP is on record as “decreased protein levels”.

Source of the values: patent publication US20100267803A1, “Regulators Of Fat Metabolism As Anti-Cancer Targets” (The Research Foundation of State University Of New York, priority 2008, published 2010).
